“Also recorded” adds a separate entry of the source.
Tests used:
EAEC isolates [1] = assay: MMP-9 detection by gelatin zymography in EAEC isolates after rifaximin exposure; assay type: cell-based, E coli
Description: Expression of matrix metalloproteinase-9 (MMP-9) was analyzed using gelatin zymography in all viable EAEC and S. sonnei isolates growing on MacConkey agar. Isolates were suspended in 1 mL of 0.1 M phosphate buffered saline (pH 7.2) and centrifuged at 1000 g for 10 minutes at 4° C. The supernatant was subjected to gelatin zymography to detect MMP-9 activity using a modified Heussen and Dowdle protocol (9). In summary, the supernatant was diluted 1:2 in a sample buffer (125 mM Tris-HCl, pH 6.8, 20% glycerol, 4% sodium dodecyl sulfate, 0.02% bromphenol blue), and 20 μL was loaded on to a 10% SDS-PAGE gel containing 1 mg/mL gelatin. Prestained standard proteins were used as molecular weight markers. After electrophoresis, gels were rinsed with incubation buffer (2.5% triton X-100, 50 mM Tris-HCl, pH 7.4, 0.02% Brij 35, 10 mM CaCl2, 2 μM ZnCl2) for 1 hour at room temperature to remove SDS. Gels were then incubated overnight at 37° C. and subsequently stained with Coomassie brilliant blue R-250 (Thermo Fisher Scientific, Inc, Rockford, Ill.). […] Matrix metalloproteinase-9 was identified among all gelatinolytic proteins by size.

EAEC = assay: Effect of dialyzed supernatants of treated HEp-2 cells on EAEC adherence; assay type: cell-based, E. coli; settings: HEp-2 treated 24 h with 64 mg/ml (so in the source); chambered slides with or without HEp-2 cells, 3 h
Description: Supernatant dialysis. HEp-2 cells were cultured in T-175 flasks as described above. […] After 24 h, the medium was collected, loaded into regenerated cellulose dialysis tubing (cutoff, 6 to 8 kDa; Spectra/Por, Rancho Domiguez, Calif.), and dialyzed against 4 liters of PBS changed four times. Each dialysis step lasted at least 6 h and was carried out at 4° C. Dialyzed supernatants were either used immediately in adherence assays or stored at −20° C. until use.
The effect of supernatants on EAEC adherence was determined by mixing EAEC with the dialyzed media from the different antibiotic (or control) treatment groups and adding the bacteria to HEp-2 cells cultured in chambered slides or to chambered slides with no HEp-2 cells. Adherence was visualized microscopically as described above.

[2] = system: enteroaggregative E coli strains; assay: MIC against rifaximin by agar dilution, EAEC isolates; assay type: cell-based; settings: 2 EAEC isolates
Text: Five enterotoxigenic E coli strains, 2 enteroaggregative E coli strains, and 1 S sonnei isolate were included in the study. The isolates had been identified previously from patients with TD acquired in Guadalajara, Mexico, during the summer of 2004 (5).

EAEC isolates [3] = assay: Isolate viability after rifaximin exposure, EAEC; assay type: cell-based, E coli
S. sonnei = S. sonnei adherence and internalization in antibiotic-pretreated HeLa cells; assay type: cell-based; settings: vs other treatment groups
[4] = oral administration, healthy volunteers (Descombe et al. 1994); cited from earlier work
EAEC strain O42 = assay type: cell-based, E. coli
S sonnei isolate = assay: Isolate viability after rifaximin exposure, S sonnei; assay type: cell-based
[5] = 24 h pretreatment with 64 mg (sic; FIG. 2: 64 μg/ml)

## (2S,16Z,18E,20S,21S ,22R, 23R,24R,255,265,275,28E)-5,6,21,23,25 Pentahydroxy-27-methoxy-2,4,11,16,20,22,24,26-octamethyl-2,7-(epoxypentadeca-(1,11,13) trienimino) benzofuro (4,5-e) pyrido(1,2,-a) benzimidazole-1,15(2H)-dione,25-acetate [Rifaximin]
EAEC isolates [1]; 18-hour time point (rifaximin 8 mg/L)
  MMP-9 expression by EAEC isolates: one EAEC isolate produced MMP-9, but the other isolate did not
EAEC isolates [1]; rifaximin 8 mg/L for 4 and 8 hours
  MMP-9 expression by EAEC isolates: expressed MMP-9
EAEC isolates [1]; rifaximin 8 mg/L for 24 hours
  MMP-9 expression by EAEC isolates: undetectable
EAEC isolates [1]; rifaximin 32 or 64 mg/L for 4, 8, or 18 hours
  MMP-9 expression by EAEC isolates: undetectable
EAEC
  Adherence of EAEC mixed with dialyzed supernatants from treated HEp-2 cells: adhered poorly; also recorded: affected EAEC adherence
[2]
  MIC: 64 µg/mL
EAEC isolates [3]; rifaximin 8 mg/L for 24 hours
  EAEC viability: viable
EAEC isolates [3]; rifaximin 8, 32, and 64 mg/L at 4, 8, and 18 hours
  EAEC viability: viable
EAEC isolates [3]; rifaximin 32 and 64 mg/L for 24 hours
  EAEC viability: no viable isolates were recovered; also recorded: not viable
S. sonnei
  S. sonnei attachment: no effect
  S. sonnei internalization: no effect
[4]
  Systemic absorption: negligible
EAEC strain O42
  EAEC adherence to pretreated HEp-2 cells, quantified by CFU: significantly lower; also recorded: reduced EAEC adherence
EAEC strain O42; [5]
  EAEC adherence to A549 cells: significantly reduced
  EAEC adherence to HCT-8 cells: not significant
  EAEC adherence to HEp-2 cells: significantly reduced
  EAEC adherence to HeLa cells: significantly reduced
EAEC strain O42; HEp-2 cells pretreated 24 h, washed, EAEC 3 h, Wright-Giemsa staining
  EAEC O42 adherence to pretreated HEp-2 cells (microscopy, stacked-brick pattern): greatly reduced
EAEC strain O42; after 3 h incubation with pretreated HEp-2 cells
  EAEC bacterial counts in the supernatants (viability): No differences; also recorded: without affecting EAEC viability
S sonnei isolate; rifaximin 8 mg/L for 4, 8, 18, and 24 hours
  S sonnei viability: viable
S sonnei isolate; rifaximin 32 or 64 mg/L at any time point examined
  S sonnei viability: not viable

From patent US20200069664A1, “METHODS FOR TREATING INFECTION” (Salix Pharmaceuticals, Ltd, priority 2010, published 2020)
